Values of other authors, collected in patent publication US20100080768A1, “Compositions and Methods for the Treatment of Inflammatory Dermatosis and Other Pathological Conditions of the Skin” (priority 2008, published 2010).

Columns and labels:
[1] = not given; remark: listed apart in the source

For NC(=O)c1cccnc1 [Nicotinamide, nicotinamide], the pka value is listed as 0.5 and the solubility in water [1] is listed as “free soluble”.
